Results on 9 compounds are retold here after patent publication US8846656B2, “Tetrahydropyrido-pyridine and tetrahydropyrido-pyrimidine compounds and use thereof as C5a receptor modulators” (Novartis AG, priority 2011, dated 2014).

In one experiment the target is human C5aR (Homo sapiens (Human), UniProt P21730). Kind of experiment: FLIPR assay: inhibition of C5a-mediated calcium mobilization. The format is cell-based. Conditions: stable cell line over expressing human C5aR & Gα15, human C5a at EC50 (0.1-0.25 nM). The procedure, abridged: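 Compounds were added for 30 minutes at room temperature (1% DMSO) ahead of C5a stimulation. Before this, cells were dye-loaded for 1 h at 37° C: calcium 5 with 2.5 mM probenecid in HBSS, 20 mM HEPES, 0.1% BSA. Cells co-express human C5aR and Gα15; read-out is FLIPR Tetra calcium flux.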

For a further experiment, the system named is CD11b. As to the kind of experiment: Human whole blood CD11b up-regulation assay. Conditions: Homo sapiens, 2 nM human C5a, CD15+ granulocytes, read-out: hCD11b IC50. The format is cell-based. The procedure, abridged: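 Flow cytometric read-out: CD11b median fluorescence intensity of CD15+ granulocytes, 10,000 events. Stimulus was 2 nM human C5a for 15 min at room temperature, following 10 min compound exposure in 1% DMSO in fresh sodium-heparin whole blood; staining done on ice and erythrocytes lysed.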

Each structure is given as a SMILES string.

Chain of human C5aR (P21730 whole entry): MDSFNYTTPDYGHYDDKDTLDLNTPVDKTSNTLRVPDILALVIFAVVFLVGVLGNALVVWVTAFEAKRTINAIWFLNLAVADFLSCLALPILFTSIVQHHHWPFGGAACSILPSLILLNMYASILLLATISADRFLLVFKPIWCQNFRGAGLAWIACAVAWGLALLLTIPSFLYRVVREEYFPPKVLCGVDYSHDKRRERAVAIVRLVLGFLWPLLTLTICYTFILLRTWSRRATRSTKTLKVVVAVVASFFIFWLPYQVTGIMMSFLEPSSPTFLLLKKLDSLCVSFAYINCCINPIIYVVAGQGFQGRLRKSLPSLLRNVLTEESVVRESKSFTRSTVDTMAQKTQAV

As for `CO[C@@H]1CCN(c2nc(-c3cc(C)ccc3C)nc3c2CN(c2cc(C(C)C)ccc2C)CC3)[C@H](C)C1` [Example 21-E, 2-(2,5-dimeethylphenyl)-6-(5-isopropyl-2-methylphenyl)-4-((2R,4R)-4-methoxy-2-methylpiperidin-1-yl)-5,6,7,8-tetrahydropyrido[4,3-d]pyrimidine], the IC50 at human C5aR amounted to 23 nM; with CD11b, 422 nM.

With `CO[C@@H]1CCN(c2nc(-c3c(C)cccc3C)nc3c2CN(c2cc(C4(C)COC4)ccc2C)CC3)[C@H](C)C1` [Example 21-K, 2-(2,6-dimethylphenyl)-4-((2R,4R)-4-methoxy-2-methylpiperidin-1-yl)-6-(2-methyl-5-(3-methyloxetan-3-yl)phenyl)-5,6,7,8-tetrahydropyrido[4,3-d]pyrimidine], the IC50 at human C5aR came to 2 nM; with CD11b it was 11 nM.

As for `CO[C@@H]1CCN(c2nc(-c3c(C)cncc3C)nc3c2CN(c2cc(C(C)C)ccc2C)CC3)CC1(C)C` [Example 21-M, (R)-2-(3,5-dimethylpyridin-4-yl)-6-(5-isopropyl-2-methylphenyl)-4-(4-methoxy-3,3-dimethylpiperidin-1-yl)-5,6,7,8-tetrahydropyrido[4,3-d]pyrimidine], the IC50 stood at 56 nM on human C5aR and 181 nM in the experiment on CD11b.

As to `COc1ccc(C)c(N2CCc3nc(-c4c(C)cccc4C)nc(N4CC[C@@H](OC)C[C@H]4C)c3C2)c1` [Example 21-N, 2-(2,6-dimethylphenyl)-6-(5-methoxy-2-methylphenyl)-4-((2R,4R)-4-methoxy-2-methylpiperidin-1-yl)-5,6,7,8-tetrahydropyrido[4,3-d]pyrimidine], the results for the IC50 at human C5aR and in the experiment on CD11b were 2 nM and 8 nM, respectively.

As to `CO[C@@H]1CCN(c2nc(-c3c(C)cccc3C)nc3c2CN(c2cc(Cl)ccc2C)CC3)[C@H](C)C1` [Example 21-P, 6-(5-chloro-2-methylphenyl)-2-(2,6-dimethylphenyl)-4-((2R,4R)-4-methoxy-2-methylpiperidin-1-yl)-5,6,7,8-tetrahydropyrido[4,3-d]pyrimidine], the IC50 on human C5aR worked out at 7 nM; in the experiment on CD11b, 26 nM.

Take `CO[C@@H]1CCN(c2nc(-c3c(C)ccc4[nH]nc(C)c34)nc3c2CN(c2cc(C(C)C)ccc2C)CC3)[C@H](C)C1` [Example 21-Q, (+)-2-(3,5-dimethyl-1H-indazol-4-yl)-6-(5-isopropyl-2-methylphenyl)-4-((2R,4R)-4-methoxy-2-methylpiperidijn-1-yl)-5,6,7,8-tetrahydropyrido[4,3-d]pyrimidine]: the IC50 at human C5aR was determined as 1 nM; in the experiment with CD11b it was 7 nM.

On to `CO[C@@H]1CCN(c2nc(-c3c(C)ccc4[nH]nc(C)c34)nc3c2CN(c2cc(C4(C)COC4)ccc2C)CC3)[C@H](C)C1` [Example 21-R, 2-(3,5-dimethyl-1H-indazol-4-yl)-4-((2R,4R)-4-methoxy-2-methylpiperidin-1-yl)-6-(2-methyl-5-(3-methyloxetan-3-yl)phenyl)-5,6,7,8-tetrahydropyrido[4,3-d]pyrimidine], for which the IC50 on human C5aR worked out at 1 nM; with CD11b, 15 nM.

For the compound `CO[C@@H]1CCN(c2nc(-c3c(C)ccnc3C)nc3c2CN(c2cc(C(C)C)ccc2C)CC3)[C@H](C)C1` [Example 21-S, 2-(2,4-dimethylpyridin-3-yl)-6-(5-isopropyl-2-methylphenyl)-4-((2R,4R)-4-methoxy-2-methylpiperidin-1-yl)-5,6,7,8-tetrahydropyrido[4,3-d]pyrimidine], the IC50 came to 30 nM on human C5aR and 180 nM in the experiment on CD11b.

As for `CO[C@@H]1CCN(c2nc(-c3c(C(F)(F)F)cnc4[nH]ccc34)nc3c2CN(c2cc(C(C)C)ccc2C)CC3)[C@H](C)C1` [Example 22-C, 6-(5-Isopropyl-2-methylphenyl)-4-((2R,4R)-4-methoxy-2-methylpiperidin-1-yl)-2-(5-(trifluoromethyl)-1H-pyrrolo[2,3-b]pyridin-4-yl)-5,6,7,8-tetrahydropyrido[4,3-d]pyrimidine], the IC50 on human C5aR amounted to 2 nM; in the experiment on CD11b it was 17 nM.
